Measured values taken from patent US10538515B2, “Isatin-derived compounds, use of the compounds for the treatment of AIDS and method of treatment using these compounds” (FUNDAÇÄO OSWALDO CRUZ, priority 2016, dated 2020).
Where two headings read alike, the source gives them in different places.

How the values were obtained:
[1] = Cytotoxicity assay (MTT); type: cell-based; conditions: human
Procedure: (§1) The T-lymphocyte cell line (Suptl) was cultured in an RPMI 1640 medium (GIBICO). The cultures were supplemented with 10% Fetal Bovine Serum (SFB; HyClone, Logan, Utah, USA), 100 U/mL of penicillin and […] of streptomycin, and incubated at 37° C., in an atmosphere of 5% CO2. Virus stocks were prepared using the methodology described by Souza and Denizot (SOUZA, T. M. L; RODRIGUES, D. Q.; […], V. F.; MARQUES, I. P.; DE SOUZA, M. C. B. V.; […], I. C. P. P.; BOU-HABIB, D. C; FONTES, C. F. L. Characterization of HIV-1 enzyme reverse transcriptase inhibition by the compound 6-chloro-1.4-dihydro-4-oxo-1-(β-D-ribofuranosyl) quinoline-3-carboxylic acid through kinetic and in silico studies. Current HIV Research, v. 7, No 3, page 327-335, 2009. DENIZOT, F.; LANG, R. Rapid colorimetric assay for cell growth and survival. Modifications to the tetrazolium dye procedure giving improved sensitivity and reliability. The Journal of Immunological Methods, v. 89, No 2, page 271-277, 1986).
(§2) . They were then run through an MTT assay (3-(4,5-dimethylazol-2-yl)-2.5-diphenyl tetrazolium bromide) in order to analyze cell induction infeasibility. MTT is a colorimetric method that measures mitochondrial dehydrogenase activity based on the ability of live cells to reduce 3-(4,5-methylazol-2-yl)-2.5-diphenyl tetrazolium bromide salt in the product. A […] solution of 3-(4,5-dimethylthiazol-2-yl)-2.5-diphenyl tetrazolium bromide (1 mg/ml) (MTT, Sigma) was thus added to the cells, kept in Dulbecco's Modified Eagle's medium (DMEM) without serum. The MTT was removed after three hours and, after adding […] of isopropanol acid (0.04N HCl in isopropanol), the optical density (OD) was determined using a wavelength range of 570 to 690 nm, according to KUO et al (KUO, Y. C; CHEN, C. C; TSA, W. J.; HO, Y. H. Regulation of type 1 herpes simplex virus replication in vero cells by Psychotriaserpens: relationship to gene expression, DNA replication, and protein synthesis. Antiviral Research, v. 51, No 2, pages 95 to 109, 2001). The dye coloring has different optical densities, depending on mitochondrial metabolism after treating cells with different concentrations of the new derivatives or the absence thereof. The 50% cytotoxic concentration (CC50) was calculated through linear regression analysis from the dose-response curve obtained from experimental data.

[2] = target: T1, recombinant HIV-1 reverse transcriptase (RTHXB2) (Human immunodeficiency virus type 1 group M subtype B, UniProt P04585); assay: Reverse transcriptase inhibition activity (RDDP, [3H]dTTP incorporation); type: biochemical; conditions: for IS: CC50 / CI50
T1 construct: The enzyme is derived from a polyprotein encoded by the virus, processed by the viral protease
Procedure: Reverse Transcriptase Inhibition Activity
The RDDP activity was determined in 50 mM Tris HCl (pH 7.8), 6 mM MgCl2, 1 mM dithiothreitol, 50 mM KCl, 5 μM dTTP, […] poly (rA) oligo (dT) template primer (Pharmacia, Piscataway, N.J., USA) and 3 U of enzyme (one unit is the enzyme concentration incorporating dTTP […] per minute per mg of enzyme at 37° C. under standard conditions). The reaction isotope dilutions were prepared at 2 μCi of [3H] dTTP (49 Ci/mmol)/2,7μ dTTP. The reaction was initiated at 37° C., incubated for 30 minutes and halted with 0.5M EDTA. The precipitate was collected on Whatman 81 filter paper and washed with 0.1 M sodium phosphate. The incorporated nucleotides were measured by liquid scintillation. The 50% inhibitory concentration (Ciso) was determined by linear regression analysis of the dose-response curve obtained from experimental data. The polymerization reaction was conducted in the presence and absence of test substances, as well as the presence and absence of standards.
All tests were conducted on three separate occasions. At least three independent experiments were performed and triplicates were run for each concentration.

[3] = tested on: Suptl cells (T-lymphocyte cell line); assay: Cytotoxicity assay (MTT); type: cell-based
Procedure: as §1, §2

[4] = Suptl cells (T-lymphocyte cell line), 50% cytotoxic concentration, 72 hours, MTT, read-out: CC50
[5] = 50% cytotoxic concentration, 72 hours, MTT, read-out: CC50
[6] = 50% inhibitory concentration, mean of three independent experiments, read-out: CI50 (the source's name)

| Structure (SMILES) | CC50 at 72 h [1, 4] | IC50 [2] | IS [2] | other results |
| --- | --- | --- | --- | --- |
| O=C1Nc2ccc(Cl)cc2[C@@](C#CC2CC2)(C(F)(F)F)O1 [Efavirenz, reference compound] | 88 µM |  |  |  |
| Cc1cn(C2CC(n3cc(CN4C(=O)C(=O)c5cc(Cl)ccc54)nn3)C(CO)O2)c(=O)[nH]c1=O (stereo not shown) [Ic, 5-chloro-1-((1-(2-(hydroxymethyl)-5-(5-methyl-2.4-dioxo-3.4-dihydropyrimidine-1(2H)-yl)tetrahydrofuran-3-yl)-1H-1,2,3-triazole-4-yl)methyl)indolin-2.3-dione] | > 100 µM | 1.9 µM |  |  |
| CCOP(=O)(Cn1cc(CN2C(=O)C(F)(F)c3cc(Cl)ccc32)nn1)OCC [IIIf, diethyl ((4-((5-chloro-3.3-difluor-2-oxoindolin-1-yl)methyl)-1H-1,2,3-triazole-1-yl)methyl) phosphonate] |  |  | 2106 | CC50 [3, 5]: 1900 µM; RT enzyme inhibition activity compared with benchmarks (in words) [2]: more active than the nevirapine and tenofovir benchmarks; IC50 [2, 6]: 0.9 µM |
| Cc1cn([C@H]2C[C@H](N=[N+]=[N-])[C@@H](CO)O2)c(=O)[nH]c1=O [Zidovudine, reference compound] |  | 0.01 µM | 12,600 | CC50 at 72 h [1]: 126 µM |
| CCOP(=O)(Cn1cc(CN2C(=O)C(O)(C#CC3CC3)c3ccccc32)nn1)OCC (stereo not shown) [IId] |  | 3.5 µM |  | CC50 at 72 h [1, 5]: > 100 µM |
| CCOP(=O)(Cn1cc(CN2C(=O)C(=O)c3cc(Cl)ccc32)nn1)OCC [Ih, diethyl ((4-((5-chloro-2.3-dioxoindolin-1-yl)methyl)-1H-1,2,3-triazole-1-yl)methyl) phosphonate] |  | 1.2 µM |  | CC50 at 72 h [1, 5]: > 100 µM |
| CCOP(=O)(Cn1cc(CN2C(=O)C(=O)c3ccccc32)nn1)OCC [If, diethyl ((4-((2.3-dioxoindolin-1-yl)methyl)-1H-1,2,3-triazole-1-yl)methyl) phosphonate] |  | 1.3 µM | 1,782 | CC50 at 72 h [1, 5]: 2320 µM |
| CCOP(=O)(Cn1cc(CN2C(=O)C(O)(C#CC3CC3)c3cc(Cl)ccc32)nn1)OCC (stereo not shown) [IIf, diethyl ((4-((5-chloro-3-(cyclopropylethanol)-3-hydroxy-2-oxoindolin-1-yl)methyl)-1H-1,2,3-triazole-1-yl)methyl) phosphonate] |  |  |  | CC50 [3, 5]: > 100 µM; IC50 [2, 6]: 3.2 µM |
| Cc1ccc2c(c1)C(=O)C(=O)N2Cc1cn(C2CC(n3cc(C)c(=O)[nH]c3=O)OC2CO)nn1 (stereo not shown) [Ib] | > 100 µM | 1.9 µM |  |  |
| C[C@H](Cn1cnc2c(N)ncnc21)OCP(=O)(O)O [Tenofovir, reference compound] |  |  | 567 | CC50 [3]: 680 µM; IC50 [2, 6]: 1.2 µM |
| CCOP(=O)(Cn1cc(CN2C(=O)C(=O)c3cc(C)ccc32)nn1)OCC [Ig, diethyl ((4-((5-methyl-2.3-dioxoindolin-1-yl)methyl)-1H-1,2,3-triazole-1-yl)methyl) phosphonate] |  | 0.7 µM | 2,940 | CC50 at 72 h [1, 5]: 2060 µM; RT enzyme inhibition activity compared with benchmarks (in words) [2]: more active than the nevirapine and tenofovir benchmarks |
| Cc1cn(C2CC(n3cc(CN4C(=O)C(F)(F)c5ccccc54)nn3)C(CO)O2)c(=O)[nH]c1=O (stereo not shown) [IIIa, 1-(4-(4-((3,3-difluor-2-oxoindolin-1-yl)methyl)-1H-1,2,3-triazole-1-yl)-5-(hydroxymethyl)tetrahydrofuran-2-yl)-5-methylpyrimidine-2.4(1H,3H)-dione] |  |  | 1392 | CC50 [3, 5]: 835 µM; RT enzyme inhibition activity compared with benchmarks (in words) [2]: more active than the nevirapine and tenofovir benchmarks; IC50 [2, 6]: 0.6 µM |
| Cc1ccc2c(c1)C(O)(C#CC1CC1)C(=O)N2Cc1cn(C2CC(n3cc(C)c(=O)[nH]c3=O)OC2CO)nn1 (stereo not shown) [IIb, 1-(4-(4-((3-(cyclopropylethanol)-3-hydroxy-5-methyl-2-oxoindolin-1-yl)methyl)-1H-1,2,3-triazole-1-yl)-5-(hydroxymethyl)tetrahydrofuran-2-yl)-5-methylpyrimidine-2.4(1H,3H)-dione] | > 100 µM | 3.3 µM |  |  |
| Cc1cn(C2CC(n3cc(CN4C(=O)C(F)(F)c5cc(Cl)ccc54)nn3)C(CO)O2)c(=O)[nH]c1=O (stereo not shown) [IIIc, 1-(4-(4-((5-chloro-3.3-difluor-2-oxoindolin-1-yl)methyl)-1H-1,2,3-triazole-1-yl)-5-(hydroxymethyl)tetrahydrofuran-2-yl)-5-methylpyrimidine-2.4(1H,3H)-dione] |  |  | 1318 | CC50 [3, 5]: 1050 µM; RT enzyme inhibition activity compared with benchmarks (in words) [2]: more active than the nevirapine and tenofovir benchmarks; IC50 [2, 6]: 0.8 µM |
| Cc1cn(C2CC(n3cc(CN4C(=O)C(=O)c5ccccc54)nn3)C(CO)O2)c(=O)[nH]c1=O (stereo not shown) [Ia, 1-((1-(2-(hydroxymethyl)-5-(5-methyl-2.4-dioxo-3.4-dihydropyrimidine-1(2H)-yl)tetrahydrofuran-3-yl)-1H-1,2,3-triazole-4-yl)methyl)indolin-2.3-dione] | > 100 µM | 2.5 µM |  |  |
| Cc1cn(C2CC(n3cc(CN4C(=O)C(O)(C#CC5CC5)c5ccccc54)nn3)C(CO)O2)c(=O)[nH]c1=O (stereo not shown) [IIa] | > 100 µM | 2.1 µM |  |  |
| Cc1cn(C2CC(n3cc(CN4C(=O)C(O)(C#CC5CC5)c5cc(Cl)ccc54)nn3)C(CO)O2)c(=O)[nH]c1=O (stereo not shown) [IIc] | > 100 µM | 3.1 µM |  |  |
| CCOP(=O)(Cn1cc(CN2C(=O)C(F)(F)c3cc(C)ccc32)nn1)OCC [IIIe, diethyl ((4-((3,3-difluor-5-methyl-2-oxoindolin-1-yl)methyl)-1H-1,2,3-triazole-1-yl)methyl) phosphonate] |  |  |  | CC50 [3, 5]: > 100 µM; IC50 [2, 6]: 2.2 µM |
| Cc1ccc2c(c1)C(=O)C(=O)N2Cc1cn(-c2ccc(S(=O)(=O)N(CC(C)C)CC(O)C(Cc3ccccc3)NC(=O)OC3CCOC3)cc2)nn1 [Ie, tetrahydrofuran-3-yl ((2S,3R)-3-hydroxy-4-(N-isobutyl-4-(4-((5-methyl-2.3-dioxoindolin-1-yl)methyl)-1H-1,2,3-triazole-1-yl)phenylsulfonamide)-1=phenylbutan-2-yl)carbamate] | > 100 µM | 0.9 µM |  | RT enzyme inhibition activity compared with benchmarks (in words) [2]: more active than the nevirapine and tenofovir benchmarks |
| CCOP(=O)(Cn1cc(CN2C(=O)C(O)(C#CC3CC3)c3cc(C)ccc32)nn1)OCC (stereo not shown) [IIe, diethyl ((4-((3-(cyclopropylethanol)-3-hydroxy-5-methyl-2-oxoindolin-1-yl)methyl-1,2,3-triazole-1-yl)methyl) phosphonate] |  | 1.8 µM |  | CC50 at 72 h [1, 5]: > 100 µM |
| CC(C)CN(CC(O)C(Cc1ccccc1)NC(=O)OC1CCOC1)S(=O)(=O)c1ccc(-n2cc(CN3C(=O)C(=O)c4ccccc43)nn2)cc1 [Id, tetrahydrofuran-3-yl ((2S)3R)-4-(4-(4-((2.3-dioxoindolin-1-yl)methyl)-1H-1,2,3-triazole-1-yl)-N-isobutylphenylsulfonamide)-3-hydroxy-1-phenylbutan-2-yl) carbamate] | > 100 µM | 1.5 µM |  |  |
| Cc1ccnc2c1NC(=O)c1cccnc1N2C1CC1 [Nevirapine, reference compound] | 895 µM |  | 746 |  |
